≈ marks a conversion by molar mass, not a printed value.
Tests used:
Escherichia coli 0-111 = assay: therapeutic effect to infectious disease of mice; assay type: in vivo; details: 0111; mice infected with Escherichia coli 0-111; subcutaneous (SC); TAN-547 hydrochloride(s)
solubility = assay type: physicochemical
β-lactamase = assay: stability to β-lactamase (overall statement); assay type: biochemical; details: as seen from Table 3
Description: (§1) In the above Table 3, the stabilities against the β-lactamase produced by Escherichia coli TN 713 and β-lactamase produced by Klebsiella oxytoca TN 1719 are expressed on a numerical scale, whereby the stabilities of PCG against these are rated at 100. Also, the stabilities against the β-lactamase produced by Serratia marcescens and β-lactamase produced by Proteus vulgaris are expressed on a numerical scale, whereby the stabilities of CER against these are rated at 100.

[1] = stability in aqueous solution; assay type: physicochemical
[2] = tested on: β-lactamase produced by Escherichia coli TN 713; assay: stability to β-lactamase (relative ratio of hydrolysis rate); assay type: biochemical; details: PCG rated at 100
Description: as §1

[3] = tested on: β-lactamase produced by Klebsiella oxytoca TN 1719; assay: as above; assay type: biochemical; details: PCG rated at 100
Description: as §1

[4] = tested on: β-lactamase produced by Serratia marcescens TN 81; assay: as above; assay type: biochemical; details: CER rated at 100
Description: as §1

[5] = tested on: β-lactamase produced by Proteus vulgalis GN 4413; assay: as above; assay type: biochemical; details: CER rated at 100
Description: as §1

[6] = tested on: Proteus vulgalis IFO 3988; assay: antimicrobial spectrum (minimal inhibitory concentration); assay type: cell-based; details: pH 7.0
Description: (§2) The antimicrobial spectra of the compound (I) are shown in Table 1. | *Culture medium: 17.5 g of Bacto antibiotic medium 3 (Difco), 5 g of | Bacto yeast extract (Difco), 20 g of Bacto agar (Difco), 1 l of distilled | water; pH 7.0 | The amount of inoculated microorganism: 1 loopful of about 10^6 /ml o | microorganism suspension.

[7] = tested on: Pseudomonas aeruginosa IFO 3080; assay: as above; assay type: cell-based; details: IFO3080, pH 7.0
Description: as §2

[8] = tested on: Serratia marcescens IFO 12648; assay: as above; assay type: cell-based; details: IFO12648, pH 7.0
Description: as §2

[9] = tested on: Acinetobacter calcoaceticus IFO 12552; assay: as above; assay type: cell-based; details: IFO12552, pH 7.0
Description: as §2

[10] = tested on: Staphylococcus aureus FDA 209P; assay: as above; assay type: cell-based; details: FDA209P, pH 7.0
Description: as §2

[11] = tested on: Alcaligenes faecalis IFO 13111; assay: as above; assay type: cell-based; details: IFO13111, pH 7.0
Description: as §2

[12] = tested on: Escherichia coli NIHJ JC-2; assay: as above; assay type: cell-based; details: NIHJJC2, pH 7.0
Description: as §2

[13] = tested on: Klebsiella pneumoniae IFO 3317; assay: as above; assay type: cell-based; details: IFO3317, pH 7.0
Description: as §2

[14] = tested on: Bacillus megaterium IFO 12108; assay: as above; assay type: cell-based; details: Priestia megaterium, IFO12108, pH 7.0
Description: as §2

[15] = tested on: Citrobacter freundii IFO 12681; assay: as above; assay type: cell-based; details: IFO12681, pH 7.0
Description: as §2

[16] = tested on: Brevibacterium thiogenitalis ATCC 19240; assay: as above; assay type: cell-based; details: Corynebacterium glutamicum, ATCC19240, pH 7.0
Description: as §2

[17] = tested on: Salmonella typhimurium IFO 12529; assay: as above; assay type: cell-based; details: Salmonella enterica, pH 7.0
Description: as §2

[18] = tested on: Bacillus subtilis NIHJ PCI219; assay: as above; assay type: cell-based; details: NIHJPCI219, pH 7.0
Description: as §2

[19] = property of the substance (amphoteric); assay type: physicochemical; details: dihydrochloride is neutral
[20] = acute toxicity, subcutaneous administration to mice; assay type: in vivo; details: subcutaneously, 1 g/kg
[21] = dimethylsulfoxide, methanol, acetone, ethyl acetate
[22] = water, aqueous acetone, aqueous alcohol

Row | SMILES | ED50 (Escherichia coli 0-111) | Solubility (solubility; [21]) | Solubility (solubility; [22]) | Stability ([1]; acidic aqueous solution) | Stability ([1]; basic aqueous solution) | Stability ([1]; neutral aqueous solution) | Relative ratio of hydrolysis rate [2] | Relative ratio of hydrolysis rate [3] | Relative ratio of hydrolysis rate [4] | Relative ratio of hydrolysis rate [5] | MIC [6] | MIC [7] | MIC [8] | MIC [9] | MIC [10] | MIC [11] | MIC [12] | MIC [13] | MIC [14] | MIC [15] | also measured
1 | CC(N)C(=O)NC(C)C(=O)NC(CCCNC(=N)N)C(O)CC(=O)OCC1=C(C(=O)O)N2C(=O)C(NC=O)(NC(=O)CCCC(N)C(=O)O)C2SC1 (centres unmarked) [TAN-547 B] | 17.2 mg/kg | Hardly soluble | Easily soluble | Unstable | Unstable | slightly unstable | < 0.01 | < 0.01 | < 0.01 | < 0.01 | 25 µg/mL (≈ 32.9 µM) | > 50 µg/mL | 50 µg/mL (≈ 65.9 µM) | 3.13 µg/mL (≈ 4.12 µM) | > 50 µg/mL | 6.25 µg/mL (≈ 8.24 µM) | 25 µg/mL (≈ 32.9 µM) | 50 µg/mL (≈ 65.9 µM) | 12.5 µg/mL (≈ 16.5 µM) | 50 µg/mL (≈ 65.9 µM) | stability to β-lactamase (β-lactamase): remarkably stable; MIC [16]: 6.25 µg/mL (≈ 8.24 µM); MIC [17]: 25 µg/mL (≈ 32.9 µM); MIC [18]: 12.5 µg/mL (≈ 16.5 µM); Property of the substance [19]: Amphoteric substance
2 | CC(N)C(=O)NC(C)C(=O)NC(CCCNC(=N)N)C(O)CC(=O)OCC1=C(C(=O)O)N2C(=O)C(NC(=O)CCCC(N)C(=O)O)C2SC1 (centres unmarked) [TAN-547 E] | 21 mg/kg | Hardly soluble | Easily soluble | Slightly unstable | Unstable | Slightly unstable |  |  |  |  | 50 µg/mL (≈ 69.9 µM) | > 100 µg/mL | > 100 µg/mL | 100 µg/mL (≈ 140 µM) | 25 µg/mL (≈ 34.9 µM) | 12.5 µg/mL (≈ 17.5 µM) | 50 µg/mL (≈ 69.9 µM) | 100 µg/mL (≈ 140 µM) | 1.56 µg/mL (≈ 2.18 µM) | > 100 µg/mL | MIC [16]: 3.13 µg/mL (≈ 4.37 µM); MIC [17]: 50 µg/mL (≈ 69.9 µM); MIC [18]: 1.56 µg/mL (≈ 2.18 µM); Property of the substance [19]: Amphoteric substance
3 | CCN1CCN(C(=O)N[C@@H](C(=O)N[C@@H]2C(=O)N3C(C(=O)O)=C(CSc4nnnn4C)CS[C@H]23)c2ccc(O)cc2)C(=O)C1=O [CPZ, cefoperazone, reference compound] |  |  |  |  |  |  | 11.2 | 1.55 | 11.6 | 10.5 |  |  |  |  |  |  |  |  |  |  | 
4 | CC(N)C(=O)NC(C)C(=O)NC(C)C(=O)NC(CCCNC(=N)N)C(O)CC(=O)OCC1=C(C(=O)O)N2C(=O)C(NC(=O)CCCC(N)C(=O)O)C2SC1 (centres unmarked) [TAN-547 F] | 25 mg/kg | Hardly soluble | Easily soluble | Slightly unstable | Unstable | Slightly unstable |  |  |  |  | 100 µg/mL (≈ 127 µM) | > 100 µg/mL | > 100 µg/mL | 100 µg/mL (≈ 127 µM) | 12.5 µg/mL (≈ 15.9 µM) | 12.5 µg/mL (≈ 15.9 µM) | > 100 µg/mL | 100 µg/mL (≈ 127 µM) | 1.56 µg/mL (≈ 1.98 µM) | > 100 µg/mL | MIC [16]: 3.13 µg/mL (≈ 3.98 µM); MIC [17]: 100 µg/mL (≈ 127 µM); MIC [18]: 1.56 µg/mL (≈ 1.98 µM); Property of the substance [19]: Amphoteric substance
5 | CC(N)C(=O)NC(CCCNC(=N)N)C(O)CC(=O)OCC1=C(C(=O)O)N2C(=O)C(NC(=O)CCCC(N)C(=O)O)C2SC1 (centres unmarked) [TAN-547 D] | 9.92 mg/kg | Hardly soluble | Easily soluble | Slightly unstable | Unstable | Slightly unstable |  |  |  |  | 50 µg/mL (≈ 77.6 µM) | > 100 µg/mL | > 100 µg/mL | 50 µg/mL (≈ 77.6 µM) | 25 µg/mL (≈ 38.8 µM) | 12.5 µg/mL (≈ 19.4 µM) | 50 µg/mL (≈ 77.6 µM) | 100 µg/mL (≈ 155 µM) | 0.78 µg/mL (≈ 1.21 µM) | > 100 µg/mL | death [20]: no death was observed; MIC [16]: 1.56 µg/mL (≈ 2.42 µM); MIC [17]: 50 µg/mL (≈ 77.6 µM); MIC [18]: 0.78 µg/mL (≈ 1.21 µM); Property of the substance [19]: Amphoteric substance
6 | O=C(Cc1cccs1)N[C@@H]1C(=O)N2C(C(=O)[O-])=C(C[n+]3ccccc3)CS[C@H]12 [CER, cephaloridine, reference compound] |  |  |  |  |  |  | 21 | 30 | 100 | 100 |  |  |  |  |  |  |  |  |  |  | 
7 | CC(N)C(=O)NC(C)C(=O)NC(C)C(=O)NC(CCCNC(=N)N)C(O)CC(=O)OCC1=C(C(=O)O)N2C(=O)C(NC=O)(NC(=O)CCCC(N)C(=O)O)C2SC1 (centres unmarked) [TAN-547 C] | 16.2 mg/kg | Hardly soluble | Easily soluble | Unstable | Unstable | slightly unstable | < 0.01 | < 0.01 | < 0.01 | < 0.01 | 50 µg/mL (≈ 60.2 µM) | > 50 µg/mL | 50 µg/mL (≈ 60.2 µM) | 6.25 µg/mL (≈ 7.53 µM) | > 50 µg/mL | 12.5 µg/mL (≈ 15.1 µM) | 25 µg/mL (≈ 30.1 µM) | 50 µg/mL (≈ 60.2 µM) | 12.5 µg/mL (≈ 15.1 µM) | 50 µg/mL (≈ 60.2 µM) | stability to β-lactamase (β-lactamase): remarkably stable; death [20]: no death was observed; MIC [16]: 12.5 µg/mL (≈ 15.1 µM); MIC [17]: 25 µg/mL (≈ 30.1 µM); MIC [18]: 12.5 µg/mL (≈ 15.1 µM); Property of the substance [19]: Amphoteric substance
8 | CC1(C)S[C@@H]2[C@H](NC(=O)Cc3ccccc3)C(=O)N2[C@H]1C(=O)O [PCG, benzylpenicillin, reference compound] |  |  |  |  |  |  | 100 | 100 | 12 | 16 |  |  |  |  |  |  |  |  |  |  | 
9 | CC(N)C(=O)NC(CCCNC(=N)N)C(O)CC(=O)OCC1=C(C(=O)O)N2C(=O)C(NC=O)(NC(=O)CCCC(N)C(=O)O)C2SC1 (centres unmarked) [TAN-547 A] | 18.2 mg/kg | Hardly soluble | Easily soluble | Unstable | Unstable | slightly unstable | < 0.01 | < 0.01 | < 0.01 | < 0.01 | 50 µg/mL (≈ 72.7 µM) | > 50 µg/mL | 50 µg/mL (≈ 72.7 µM) | 1.56 µg/mL (≈ 2.27 µM) | > 50 µg/mL | 6.25 µg/mL (≈ 9.09 µM) | 25 µg/mL (≈ 36.4 µM) | 50 µg/mL (≈ 72.7 µM) | 12.5 µg/mL (≈ 18.2 µM) | 50 µg/mL (≈ 72.7 µM) | stability to β-lactamase (β-lactamase): remarkably stable; MIC [16]: 6.25 µg/mL (≈ 9.09 µM); MIC [17]: 50 µg/mL (≈ 72.7 µM); MIC [18]: 12.5 µg/mL (≈ 18.2 µM); Property of the substance [19]: Amphoteric substance

Source: US4587333A, “Cephalosporins and their production” (Takeda Chemical Industries, Ltd., priority 1983, dated 1986)
